According to patent publication US20260053886A1, “ANTICANCER AGENT” (The Trustees of Princeton University, priority 2022, published 2026):
Converted amounts (≈) assume the structure as drawn. “And” between values parts separate entries of the source, which are not always exact repeats. Equal entries are not always repeated. Where two headings read alike, the source gives them in different places. Non-standard residues stand in square brackets, D forms with d. Residues, ends and D or L forms follow the SMILES beside them. Phe(βS-OH) = N[C@H](C(=O)O)[C@@H](O)c1ccccc1; NMeH = CN[C@@H](Cc1c[nH]cn1)C(=O)O; Hyp = O=C(O)[C@@H]1C[C@@H](O)CN1; NMeF = CN[C@@H](Cc1ccccc1)C(=O)O; NMeL = CN[C@@H](CC(C)C)C(=O)O; Dap = NC[C@H](N)C(=O)O; Sar = CNCC(=O)O

How the values were obtained:
[1] = tested on: S. pombe; experiment: effect on microbial growth (MIC)
[2] = tested on: breast cancer cell line MDA-MB-231; experiment: anticancer assay, growth inhibition, dose-response; type: cell-based
[3] = tested on: S. epidermidis; experiment: effect on microbial growth (MIC); type: cell-based
[4] = tested on: M. luteus; experiment: effect on microbial growth (MIC); type: cell-based
[5] = tested on: S. aureus Newman; experiment: effect on microbial growth (MIC); type: cell-based
[6] = tested on: E. faecalis OG1RF; experiment: effect on microbial growth (MIC); type: cell-based
[7] = tested on: V. cholerae; experiment: effect on microbial growth (MIC)
[8] = tested on: P. aeruginosa PAO1; experiment: effect on microbial growth (MIC); type: cell-based
[9] = tested on: E. coli K12; experiment: effect on microbial growth (MIC)
[10] = tested on: colon cancer cell line HCT116; experiment: anticancer assay, growth inhibition, dose-response; type: cell-based
[11] = tested on: B. subtilis 168; experiment: effect on microbial growth (MIC)
[12] = tested on: B. subtilis 3610; experiment: effect on microbial growth (MIC); type: cell-based
[13] = tested on: S. cerevisiae; experiment: effect on microbial growth (MIC)
[14] = tested on: S. rimosus Δrim::aprR; experiment: antimicrobial activity, cell viability (wet pellet weight) relative to DMSO; type: cell-based; conditions: Streptomyces rimosus, 120 h, read-out: half-maximal inhibitory concentration (IC50)
Protocol: (§1) Separately, small-scale fermentation of S. rimosus Δrim::apr^R was performed as described above with the following concentrations of phytosphingosine: 0, 1.25, 2.5, 5, 10, 20, 40, 80, 160 μM. After 5 d, cells were collected by centrifugation (4000 g, 1 h) and the wet weight of pellets were measured.
Cell viability relative to DMSO-treated samples were graphed and fit to a dose-response curve in Prism 9 to obtain the IC50 value. In addition, culture supernatants were processed via SPE as described above and samples were subjected to HR-HPLC-MS analysis. The extracted ion chromatograms of momomycin were integrated and the data were graphed to represent the induction effect of phytosphingosine on momomycin production at different concentrations. All data points were taken from biological duplicates.

[15] = tested on: momomycin production in S. rimosus Δrim::aprR; experiment: induction of momomycin production (HR-HPLC-MS extracted ion chromatograms); type: cell-based; conditions: Streptomyces rimosus, 120 h, read-out: half-maximal elicitor concentration (EC50)
Protocol: A seed culture of S. rimosus Δrim::apr^R was inoculated in TSBY medium as described above, which was used to start fermentation cultures in 125 mL Erlenmeyer flasks with the final concentration of cells of 0.05% (w/v). Each flask contained 25 mL R4 medium, supplemented with various concentrations of elicitors or equal volumes of DMSO as control. After 5 d of cultivation at 30° C./250 rpm, the cultures were spun down and processed by solid phase extraction (SPE). Specifically, 5 mL of supernatant was filtered and loaded onto STRATA® C18-E column (Phenomenex, 55 μm, 70 Å, 50 mg), which had been activated with MeOH and equilibrated with H2O. The column was washed with 1 mL H2O and eluted by 1 mL MeOH. The samples in MeOH were dried in vacuo, resuspended in 50 μL MeCN in H2O, and subjected to HR-HPLC-MS analysis.
as §1
Cell viability relative to DMSO-treated samples were graphed and fit to a dose-response curve in Prism 9 to obtain the IC50 value. In addition, culture supernatants were processed via SPE as described above and samples were subjected to HR-HPLC-MS analysis. […]

In the case of CC(C)C[C@H]1C(=O)N(C)[C@@H](Cc2ccccc2)C(=O)N[C@@H](Cc2ccc(O)cc2)C(=O)N[C@@H]([C@@H](O)c2ccccc2)C(=O)N[C@@H](CC(=O)O)C(=O)N(C)CC(=O)N[C@@H](CN)C(=O)N2C[C@H](O)C[C@H]2C(=O)N[C@@H](CN)C(=O)N(C)[C@@H](Cc2ccccc2)C(=O)N(C)[C@@H](Cc2cnc[nH]2)C(=O)N1C [momomycin] (cyclo(D[Sar][Dap][Hyp][Dap][NMeF][NMeH][NMeL][NMeF]Y[Phe(βS-OH)])), the “minimum inhibitory concentration (MIC)” value [1] is reported as “above 64 μg/mL”, the IC50 ([2]; adenocarcinoma MDA-MB-231, FIG. 2B, read-out: IC50) is reported as 1200 nM and the IC50 ([2]; adenocarcinoma MDA-MB-231, dose-response curve FIG. 2B) is reported as 1.7 µg/mL. For the same molecule, the “minimum inhibitory concentration (MIC)” value [3] was “above 64 μg/mL”, the “minimum inhibitory concentration (MIC)” value [4] was 64 µg/mL (≈ 45.8 µM) and the “minimum inhibitory concentration (MIC)” value [5] was “above 64 μg/mL”. For the same molecule, the “minimum inhibitory concentration (MIC)” value [6] was “above 64 μg/mL”, the “minimum inhibitory concentration (MIC)” value [7] was “above 64 μg/mL” and the “minimum inhibitory concentration (MIC)” value [8] was “above 64 μg/mL”. The “minimum inhibitory concentration (MIC)” value [9] was “above 64 μg/mL”, the IC50 ([10]; colorectal carcinoma / colon cancer cell line HCT116, FIG. 2A, read-out: IC50) was 1100 nM and ~1100 nM and the IC50 ([10]; colorectal carcinoma HCT116, dose-response curve FIG. 2A) was 1.5 µg/mL. For the same molecule, the “minimum inhibitory concentration (MIC)” value [11] was “above 64 μg/mL”, the “minimum inhibitory concentration (MIC)” value [12] was “above 64 μg/mL” and the “minimum inhibitory concentration (MIC)” value [13] was “above 64 μg/mL”.
With CCCCCCCCCCCCCC[C@@H](O)[C@@H](O)[C@@H](N)CO [phytosphingosine] the IC50 [14] was 37800 nM and the EC50 [15] was 16900 nM.
